{
  "source": "paper PMC7717600",
  "about": "“Novel [(N-alkyl-3-indolylmethylene)hydrazono]oxindoles arrest cell cycle and induce cell apoptosis by inhibiting CDK2 and Bcl-2: synthesis, biological evaluation and in silico studies” (Journal of Enzyme Inhibition and Medicinal Chemistry, 2020)",
  "key": {"[1]": {"test_system": "OVCAR-4", "test": "cells", "conditions": "Homo sapiens"}, "[2]": {"test_system": "BT-549", "test": "cells", "conditions": "Homo sapiens"}},
  "data": [
    {"compound": "CCCn1cc(C=NN=C2C(=O)Nc3ccc(C)cc32)c2ccccc21", "note": "[Compound 8a]", "values": [
      {"measurement": "GI50", "setting": "[1]; OVCAR-4, OVCAR-4", "value": 935, "unit": "nM"},
      {"measurement": "CC50", "setting": "[1]; OVCAR-4, read-out: LC50", "value": "> 100000", "unit": "nM"},
      {"measurement": "GI50", "setting": "[2]; BT-549", "value": 1790, "unit": "nM"},
      {"measurement": "CC50", "setting": "[2]; BT-549, read-out: LC50", "value": "> 100000", "unit": "nM"}
    ]}
  ]
}
